Results as given in patent US20090226398A1, “ANTI-VIRAL COMPOUNDS, COMPOSITIONS, AND METHODS OF USE” (Genelabs Technologies, Inc., priority 2008, published 2009).

What follows are molecules tested on HCV replication (assay: Replicon Assay (Huh-lucubineo-ET cells, luciferase readout)). Conditions: Hepatitis C virus; ET (Huh-lucubineo-ET) HCV replicon cell line; luciferase activity 48-72 hours after compound addition; 6 dilutions.
Type: cell-based
Procedure, shortened: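 Huh-lucubineo-ET cells stably carrying a firefly luciferase-ubiquitin-neo/NS3-5B ET replicon (adaptive mutations E1202G, T1280I, K1846T) were plated 24 h before compound, then treated at 5 or 50 μM or six 3-fold dilutions. Luciferase read 48-72 h later; % inhibition vs no-compound control, EC50/TC50 from Hill-equation fit.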

SMILES	EC50 [nM]
COc1ccc(-c2ccc(Cn3cc4nc(-c5ccccc5F)nc-4cn3)nn2)c(C(F)(F)F)c1 [Compound 317, 2-(2-Fluoro-phenyl)-5-[6-(4-methoxy-2-trifluoromethyl-phenyl)-pyridazin-3-ylmethyl]-5H-imidazo[4,5-d]pyridazine]	64
CC(=O)COc1ccc(-c2ccc(Cn3cc4nc(-c5cccc(F)c5F)nc-4cn3)nn2)c(C(F)(F)F)c1 [Compound 318, 1-(4-{6-[2-(2,3-Difluoro-phenyl)-imidazo[4,5-d]pyridazin-5-ylmethyl]-pyridazin-3-yl}-3-trifluoromethyl-phenoxy)-propan-2-one]	663
CC(O)COc1ccc(-c2ccc(Cn3cc4nc(-c5cccc(F)c5F)nc-4cn3)nn2)c(C(F)(F)F)c1 (stereo not drawn) [Compound 319, 1-(4-{6-[2-(2,3-Difluoro-phenyl)-imidazo[4,5-d]pyridazin-5-ylmethyl]-pyridazin-3-yl}-3-trifluoromethyl-phenoxy)-propan-2-ol]	4520
Fc1cccc(-c2nc3cnn(Cc4ccc(-c5ccc(OCC6CCOCC6)cc5C(F)(F)F)nn4)cc-3n2)c1F [Compound 320, 2-(2,3-Difluoro-phenyl)-5-{6-[4-(tetrahydro-pyran-4-ylmethoxy)-2-trifluoromethyl-phenyl]-pyridazin-3-ylmethyl}-5H-imidazo[4,5-d]pyridazine]	1710
CC[C@H](C)COc1ccc(-c2ccc(Cn3cc4nc(-c5cccc(F)c5F)nc-4cn3)nn2)c(C(F)(F)F)c1 [Compound 321, 2-(2,3-Difluoro-phenyl)-5-{6-[4-(2-methyl-butoxy)-2-trifluoromethyl-phenyl]-pyridazin-3-ylmethyl}-5H-imidazo[4,5-d]pyridazine]	45
CCOc1ccc(-c2ccc(Cn3cc4nc(-c5ccccc5F)nc-4cn3)cn2)c(C(F)(F)F)c1 [Compound 322, 5-[6-(4-Ethoxy-2-trifluoromethyl-phenyl)-pyridin-3-ylmethyl]-2-(2-fluoro-phenyl)-5H-imidazo[4,5-d]pyridazine]	33
CCCOc1ccc(-c2ccc(Cn3cc4nc(-c5ccccc5F)nc-4cn3)cn2)c(C(F)(F)F)c1 [Compound 323, 2-(2-Fluoro-phenyl)-5-[6-(4-propoxy-2-trifluoromethyl-phenyl)-pyridin-3-ylmethyl]-5H-imidazo[4,5-d]pyridazine]	33
COCCOc1ccc(-c2ccc(Cn3cc4nc(-c5cccc(F)c5F)nc-4cn3)nn2)c(C(F)(F)F)c1 [Compound 324, 2-(2,3-Difluoro-phenyl)-5-{6-[4-(2-methoxy-ethoxy)-2-trifluoromethyl-phenyl]-pyridazin-3-ylmethyl}-5H-imidazo[4,5-d]pyridazine]	65
N#CCOc1ccc(-c2ccc(Cn3cc4nc(-c5cccc(F)c5F)nc-4cn3)nn2)c(C(F)(F)F)c1 [Compound 325, (4-{6-[2-(2,3-Difluoro-phenyl)-imidazo[4,5-d]pyridazin-5-ylmethyl]-pyridazin-3-yl}-3-trifluoromethyl-phenoxy)-acetonitrile]	107
Fc1cccc(-c2nc3cnn(Cc4ccc(-c5ccc(OCC6CCOC6)cc5C(F)(F)F)nn4)cc-3n2)c1F (stereo not drawn) [Compound 326, 2-(2,3-Difluoro-phenyl)-5-{6-[4-(tetrahydro-furan-3-ylmethoxy)-2-trifluoromethyl-phenyl]-pyridazin-3-ylmethyl}-5H-imidazo[4,5-d]pyridazine]	1680
Fc1cccc(-c2nc3cnn(Cc4ccc(-c5ccc(OCC6CC6)cc5C(F)(F)F)nn4)cc-3n2)c1F [Compound 327, 5-[6-(4-Cyclopropylmethoxy-2-trifluoromethyl-phenyl)-pyridazin-3-ylmethyl]-2-(2,3-difluoro-phenyl)-5H-imidazo[4,5-d]pyridazine]	54
CC(C)COc1ccc(-c2ccc(Cn3cc4nc(-c5cccc(F)c5F)nc-4cn3)nn2)c(C(F)(F)F)c1 [Compound 328, 2-(2,3-Difluoro-phenyl)-5-[6-(4-isobutoxy-2-trifluoromethyl-phenyl)-pyridazin-3-ylmethyl]-5H-imidazo[4,5-d]pyridazine]	35
